Measured values: patent US9650339B2, “Inhibitors of histone demethylases” (Gilead Sciences, Inc., priority 2013, dated 2017)

Assays:
Type in all cases: biochemical
KDM6A (UTX) = KDM6A (UTX) (Homo sapiens, UniProt O15550); experiment: Histone lysine demethylase AlphaLISA assay, KDM6A; conditions: read-out: KDM6A HDME Inhibition IC50
Outline: (§1)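 Each enzyme was pre-incubated 10 min in buffer, then 10 min with compound in 3% DMSO solution. The reaction started with biotinylated histone H3 peptide substrate plus 25 μM L-ascorbate and 10 μM α-KG at room temperature. Detection used AlphaLISA acceptor beads, then streptavidin donor beads, in the dark.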

KDM3A (JMJD1A) = biological target: T1, KDM3A (JMJD1A) (Homo sapiens, UniProt Q9Y4C1); experiment: Histone lysine demethylase AlphaLISA assay, KDM3A; conditions: read-out: KDM3 A HDME Inhibition IC50
T1 construct: 2-end; purchased BPS Bioscience, US; host or cells: Bac (baculovirus system)
T1 sequence (Q9Y4C1 2-1321 limits assumed): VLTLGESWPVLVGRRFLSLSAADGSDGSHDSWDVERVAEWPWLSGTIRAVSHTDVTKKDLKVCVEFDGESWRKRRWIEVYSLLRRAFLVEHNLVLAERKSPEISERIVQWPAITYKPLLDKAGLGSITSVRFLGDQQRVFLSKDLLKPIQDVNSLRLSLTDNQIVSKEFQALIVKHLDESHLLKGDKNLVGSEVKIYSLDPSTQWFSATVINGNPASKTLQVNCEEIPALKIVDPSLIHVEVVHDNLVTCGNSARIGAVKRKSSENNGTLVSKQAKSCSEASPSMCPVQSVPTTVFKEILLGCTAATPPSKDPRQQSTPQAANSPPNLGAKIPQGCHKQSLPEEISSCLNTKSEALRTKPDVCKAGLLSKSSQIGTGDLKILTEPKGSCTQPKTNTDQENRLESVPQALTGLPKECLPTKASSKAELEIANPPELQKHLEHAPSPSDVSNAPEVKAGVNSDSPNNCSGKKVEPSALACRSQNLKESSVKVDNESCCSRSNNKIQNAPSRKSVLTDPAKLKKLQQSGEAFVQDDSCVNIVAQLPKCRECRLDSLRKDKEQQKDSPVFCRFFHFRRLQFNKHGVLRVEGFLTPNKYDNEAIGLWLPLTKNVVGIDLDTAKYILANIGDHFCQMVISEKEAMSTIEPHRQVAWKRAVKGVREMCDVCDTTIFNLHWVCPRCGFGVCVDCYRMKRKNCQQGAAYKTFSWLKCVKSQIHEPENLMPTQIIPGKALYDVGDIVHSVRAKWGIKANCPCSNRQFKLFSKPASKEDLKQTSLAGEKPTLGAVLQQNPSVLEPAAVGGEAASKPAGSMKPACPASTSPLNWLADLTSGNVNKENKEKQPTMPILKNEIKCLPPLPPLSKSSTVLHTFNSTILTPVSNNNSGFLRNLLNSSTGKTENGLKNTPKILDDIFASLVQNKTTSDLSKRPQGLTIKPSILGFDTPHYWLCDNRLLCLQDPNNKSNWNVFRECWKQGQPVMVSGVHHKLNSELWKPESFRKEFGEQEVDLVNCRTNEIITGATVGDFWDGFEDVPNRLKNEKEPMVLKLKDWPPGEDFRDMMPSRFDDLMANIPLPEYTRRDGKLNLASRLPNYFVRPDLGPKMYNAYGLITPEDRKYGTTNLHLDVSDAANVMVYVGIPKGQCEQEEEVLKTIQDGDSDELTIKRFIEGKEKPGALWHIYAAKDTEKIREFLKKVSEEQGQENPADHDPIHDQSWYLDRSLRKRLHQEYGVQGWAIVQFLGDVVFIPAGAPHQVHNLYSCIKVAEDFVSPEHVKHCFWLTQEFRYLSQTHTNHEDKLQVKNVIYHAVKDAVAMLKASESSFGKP
Outline: as §1

KDM3B (JMJD1B) = biological target: T2, KDM3B (JMJD1B) (Homo sapiens, UniProt Q7LBC6); experiment: Histone lysine demethylase AlphaLISA assay, KDM3B; conditions: read-out: KDM3B HDME Inhibition IC50
T2 construct: 842-1761; host or cells: Bac (baculovirus system)
T2 sequence (Q7LBC6 842-1761): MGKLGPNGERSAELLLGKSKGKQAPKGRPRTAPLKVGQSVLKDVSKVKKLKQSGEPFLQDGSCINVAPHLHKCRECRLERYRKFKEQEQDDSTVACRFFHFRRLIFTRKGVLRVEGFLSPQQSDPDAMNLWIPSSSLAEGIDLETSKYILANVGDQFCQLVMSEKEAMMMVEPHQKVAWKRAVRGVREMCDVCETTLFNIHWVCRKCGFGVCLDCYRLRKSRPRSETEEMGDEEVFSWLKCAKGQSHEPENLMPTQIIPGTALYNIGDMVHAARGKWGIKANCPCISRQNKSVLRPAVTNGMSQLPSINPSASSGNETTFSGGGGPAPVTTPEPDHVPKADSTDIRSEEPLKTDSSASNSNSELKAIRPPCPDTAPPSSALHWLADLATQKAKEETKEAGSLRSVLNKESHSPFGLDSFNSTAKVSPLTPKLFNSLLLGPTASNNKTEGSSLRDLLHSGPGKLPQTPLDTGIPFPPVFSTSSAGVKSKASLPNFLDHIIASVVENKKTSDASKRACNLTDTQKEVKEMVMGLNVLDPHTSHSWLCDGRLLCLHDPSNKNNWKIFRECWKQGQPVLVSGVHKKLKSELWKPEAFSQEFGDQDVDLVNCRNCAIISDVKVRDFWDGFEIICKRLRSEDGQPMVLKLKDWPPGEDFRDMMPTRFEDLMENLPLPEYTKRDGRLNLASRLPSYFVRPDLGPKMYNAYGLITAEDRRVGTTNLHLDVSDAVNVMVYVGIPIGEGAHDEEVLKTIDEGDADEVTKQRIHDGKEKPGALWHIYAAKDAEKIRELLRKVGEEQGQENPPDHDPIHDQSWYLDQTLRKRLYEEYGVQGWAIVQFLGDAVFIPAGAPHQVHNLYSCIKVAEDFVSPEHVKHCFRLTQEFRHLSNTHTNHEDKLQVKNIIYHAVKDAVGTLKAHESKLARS
Outline: as §1

Measured: IC50

Sequence of KDM6A (UTX) (O15550 919-1401): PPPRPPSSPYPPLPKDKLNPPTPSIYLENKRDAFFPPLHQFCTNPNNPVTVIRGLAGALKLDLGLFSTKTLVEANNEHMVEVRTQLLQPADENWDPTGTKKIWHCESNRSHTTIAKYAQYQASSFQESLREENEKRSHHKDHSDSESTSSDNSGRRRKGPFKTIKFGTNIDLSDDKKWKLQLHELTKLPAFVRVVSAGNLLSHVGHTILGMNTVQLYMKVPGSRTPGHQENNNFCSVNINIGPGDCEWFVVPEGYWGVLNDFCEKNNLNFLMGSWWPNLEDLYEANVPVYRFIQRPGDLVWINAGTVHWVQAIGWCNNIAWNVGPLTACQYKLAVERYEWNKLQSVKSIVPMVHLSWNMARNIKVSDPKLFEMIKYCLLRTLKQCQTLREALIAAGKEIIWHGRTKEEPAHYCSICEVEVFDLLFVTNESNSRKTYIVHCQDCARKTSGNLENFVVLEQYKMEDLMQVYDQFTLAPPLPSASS

CCN(CC)CCCCNCc1cc(C2NCCN2C)ccn1 (stereo not drawn) [Compound 65, [4-(diethylamino)-butyl]({[4-(1-methylimidazolidin-2-yl)pyridin-2-yl]methyl})amine]
> 2500 nM: all assays above

CCN(CCN(C)C)C(=O)CNCc1cc(/C=N/CCO)ccn1 [Compound 66]
> 2500 nM: all assays above

CCN(CC)CCCCNCc1cc(/C=N\CCC2CCCCC2)ccn1 [Compound 67, (2-cyclohexylethyl)-({[2-({[4-(diethylamino)-butyl]amino}methyl)pyridin-4-yl]methylidene})-amine]
> 2500 nM: all assays above

CN(C)CC1CCC(CNCc2cc(C=O)ccn2)CC1 (stereo not drawn) [Compound 97, 2-{[({4-[(dimethylamino)-methyl]cyclohexyl}-methyl)amino]-methyl}pyridine-4-carbaldehyde]
> 2500 nM: all assays above

CN(C)C/C=C/CNCc1cc(C=O)ccn1 [Compound 98, 2-({[(2E)-4-(dimethylamino)but-2-en-1-yl]amino}-methyl)pyridine-4-carbaldehyde]
> 2500 nM: all assays above

CN(C)C/C=C\CNCc1cc(C=O)ccn1 [Compound 99, 2-({[(2Z)-4-(dimethylamino)-but-2-en-1-yl]amino}methyl)-pyridine-4-carbaldehyde]
> 2500 nM: all assays above

CN1CCC(CNCc2cc(C=O)ccn2)CC1 [Compound 100, 2-({[(1-methyl-piperidin-4-yl)methyl]amino}-methyl)pyridine-4-carbaldehyde]
> 2500 nM: all assays above

CCN(CCN(C)C)C(=O)CNCc1cc(C=O)ccn1 [Compound 101]
> 2500 nM: all assays above

O=Cc1ccnc(CNCC(=O)N2CCC[C@@H]2CN2CCCC2)c1 [Compound 102, 2-[({2-oxo-2-[(2R)-2-(pyrrolidin-1-ylmethyl)pyrrolidin-1-yl]ethyl}amino)-methyl]pyridine-4-carbaldehyde]
> 2500 nM: all assays above

CN1CCN(C(=O)CNCc2cc(C=O)ccn2)CC1 [Compound 103, 2-({[2-(4-methylpiperazin-1-yl)-2-oxoethyl]-amino}methyl)-pyridine-4-carbaldehyde]
> 2500 nM: all assays above

CCN1CCCC1CNC(=O)CNCc1cc(C=O)ccn1 (stereo not drawn) [Compound 104, N-[(1-ethylpyrrolidin-2-yl)methyl]-2-{[(4-formylpyridin-2-yl)methyl]amino}-acetamide]
> 2500 nM: all assays above

CCN(CC)C(=O)CNCc1cc(C=O)ccn1 [Compound 105, N,N-diethyl-2-{[(4-formylpyridin-2-yl)methyl]amino}-acetamide]
> 2500 nM: all assays above

O=Cc1ccnc(CNCC(=O)N2CCC(Cc3ccccc3)CC2)c1 [Compound 106, 2-({[2-(4-benzylpiperidin-1-yl)-2-oxoethyl]-amino}methyl)-pyridine-4-carbaldehyde]
> 2500 nM: all assays above

CCN(CC)CCCCNCc1cc(C=O)ccn1 [Compound 107, 2-({[4-(diethylamino)-butyl]amino}-methyl)pyridine-4-carbaldehyde]
> 2500 nM: all assays above

CN(C)CCCCNCc1cc(C=O)ccn1 [Compound 108, 2-({[4-(dimethylamino)-butyl]amino}methyl)-pyridine-4-carbaldehyde]
> 2500 nM: all assays above

CN(C)CCNCc1cc(C=O)ccn1 [Compound 110, 2-({[2-(dimethylamino)-ethyl]amino}methyl)-pyridine-4-carbaldehyde]
> 2500 nM: all assays above

O=Cc1ccnc(CNCCCN2CCCC2)c1 [Compound 111, 2-({[3-(pyrrolidin-1-yl)propyl]amino}-methyl)pyridine-4-carbaldehyde]
> 2500 nM: all assays above

CCN(CC)CCCCNC(=O)CNCc1cc(C=O)ccn1 [Compound 112, N-[4-(diethylamino)-butyl]-2-{[(4-formylpyridin-2-yl)methyl]amino}-acetamide]
> 2500 nM: all assays above

CCN(CC)CCCCN(Cc1cc(C=O)ccn1)C(=O)C(F)(F)F [Compound 115, N-[4-(diethylamino)butyl]-2,2,2-trifluoro-N-[(4-formylpyridin-2-yl)methyl]acetamide]
> 2500 nM: all assays above
